According to patent publication US9540376B2, “Hexahydrodiazepinoquinolines carrying a substituted alkyl radical” (priority 2014, dated 2017):

Key:
Assay type in all cases: cell-based
human 5-HT2A receptor = target: T1, human 5-HT2A receptor (Homo sapiens, UniProt P28223); assay: Human 5-HT2A functional assay (calcium mobilisation in CHO-K1 cells); conditions: for EC50: potency in functional assay, agonism (first addition), calcium mobilisation; for Emax: CHO-K1, read-out: % efficacy (5-HT2A); for Selectivity (based on agonism) EC50 5-HT2A/EC50 5-HT2C: ratio EC50 5-HT2A/EC50 5-HT2C
T1 construct: expressed in transfected cells; host or cells: CHO-K1
T1 sequence (P28223 whole entry): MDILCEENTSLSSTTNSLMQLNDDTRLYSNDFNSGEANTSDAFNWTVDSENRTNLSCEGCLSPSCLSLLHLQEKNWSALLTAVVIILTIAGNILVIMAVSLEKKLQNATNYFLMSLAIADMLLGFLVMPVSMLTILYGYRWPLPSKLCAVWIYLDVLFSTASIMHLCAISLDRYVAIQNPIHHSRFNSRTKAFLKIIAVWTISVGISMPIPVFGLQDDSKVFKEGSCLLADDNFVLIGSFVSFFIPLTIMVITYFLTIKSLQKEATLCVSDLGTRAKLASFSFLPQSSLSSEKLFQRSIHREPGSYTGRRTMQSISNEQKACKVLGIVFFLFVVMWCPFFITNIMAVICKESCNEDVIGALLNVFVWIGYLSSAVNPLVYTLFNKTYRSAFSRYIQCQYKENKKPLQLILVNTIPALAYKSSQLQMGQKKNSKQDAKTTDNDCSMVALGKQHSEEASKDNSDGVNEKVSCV
Experimental: 2. Human 5-HT2A Functional Assay
Cells were seeded into sterile black 384-well plates with clear bottom at 25,000 cells/well in a volume of 25 μl and grown for 5-6 hours at 37° C., in 5% CO2 in tissue culture medium (“Ultra CHO” by LONZA), containing 1% dialysed FCS and 50 μg/ml gentamicin (Invitrogen). After this incubation, medium was replaced by a serum free version of the same tissue culture medium followed by incubation overnight at 37° C. and in 5% CO2. Cells were then loaded with a fluorescent calcium-sensitive dye in the presence of 0.07% probenecid for an hour at 37° C., according to the manufacturer's protocol (Ca5-Assay Kit, Molecular Devices), followed by an additional 60 min incubation at room temperature. […] The relative efficacy of the compounds was calculated as a percentage of the maximal effect induced by serotonin alone (defined as 100%). To determine EC50/IC50 values, concentration-response curves were fitted using a four-parameter logistic equation (IDBS Biobook™). Kb values were calculated from IC50 values, according to Cheng & Prusoff.

5-HT2C receptor = target: T2, 5-HT2C receptor (Homo sapiens, UniProt P28335); assay: Human 5-HT2C functional assay (beta-arrestin2 recruitment, U2OS_HTR2C_β-Arrestin cells); conditions: for EC50: potency in functional assay, beta-arrestin2 recruitment, 1.5 h incubation; for Emax: read-out: % efficacy (5-HT2C), relative efficacy vs 10 μM 5-HT or maximal 5-HT effect (100%); for % efficacy (5-HT2C): relative efficacy vs 10 μM 5-HT or maximal 5-HT effect (100%)
T2 construct: host or cells: U2OS
T2 sequence (P28335 33-458): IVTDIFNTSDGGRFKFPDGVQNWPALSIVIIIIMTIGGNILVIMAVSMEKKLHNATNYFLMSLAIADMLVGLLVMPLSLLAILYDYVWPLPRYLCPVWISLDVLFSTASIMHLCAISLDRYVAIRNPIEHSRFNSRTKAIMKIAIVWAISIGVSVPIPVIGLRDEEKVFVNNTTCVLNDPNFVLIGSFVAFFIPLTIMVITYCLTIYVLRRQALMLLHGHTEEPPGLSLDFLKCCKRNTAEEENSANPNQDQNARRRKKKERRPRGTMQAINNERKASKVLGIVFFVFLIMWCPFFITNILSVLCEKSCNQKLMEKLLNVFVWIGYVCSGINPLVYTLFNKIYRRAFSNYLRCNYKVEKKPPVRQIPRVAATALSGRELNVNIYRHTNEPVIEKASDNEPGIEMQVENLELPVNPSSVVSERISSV
T2 sequence (P32121 whole entry partner): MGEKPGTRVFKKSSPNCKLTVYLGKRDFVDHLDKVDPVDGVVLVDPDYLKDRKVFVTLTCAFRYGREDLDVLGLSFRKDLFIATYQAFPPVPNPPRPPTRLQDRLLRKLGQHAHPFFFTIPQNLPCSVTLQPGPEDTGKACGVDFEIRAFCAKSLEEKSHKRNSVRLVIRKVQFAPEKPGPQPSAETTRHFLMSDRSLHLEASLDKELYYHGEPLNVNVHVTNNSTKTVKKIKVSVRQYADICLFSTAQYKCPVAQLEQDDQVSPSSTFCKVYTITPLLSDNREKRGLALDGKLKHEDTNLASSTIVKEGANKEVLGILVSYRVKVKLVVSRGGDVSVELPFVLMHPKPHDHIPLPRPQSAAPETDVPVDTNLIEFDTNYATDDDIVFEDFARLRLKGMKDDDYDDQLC
Experimental: 1. Human 5-HT2C Functional Assay
The functional activity of compounds of formula I was assayed by incubation with U2OS_HTR2C_β-Arrestin cells (DiscoverX, 93-0289C3) to induce beta-arrestin2 recruitment to the 5-HT2C receptor. The agonist-induced recruitment and proximity of the receptor and beta-arrestin2 leads to complementation and formation of active β-galactosidase. The enzyme complementation results in enzyme activity, which is measured following the termination of the agonist incubation using DiscoveRx's detection reagent, which contains a chemiluminescent substrate which produces a high intensity signal. Cells were plated and a medium-change to a 1% serum containing medium was performed 24 h later. The next day, test compounds were added and incubated for 1.5 h before addition of detection reagent.
The response produced was measured and compared with the response produced by 10 [mu]M 5-HT or the maximal effect induced by 5-HT (defined as 100%) to which it was expressed as a percentage response (relative efficacy).

human 5-HT2B receptor = target: T3, human 5-HT2B receptor (Homo sapiens, UniProt P41595); assay: Human 5-HT2B functional assay (calcium mobilisation in CHO-FlpIn cells); conditions: for EC50: potency in functional assay, agonism (first addition), calcium mobilisation; for Selectivity (based on agonism) EC50 5-HT2B/EC50 5-HT2C: ratio EC50 5-HT2B/EC50 5-HT2C; for Emax: read-out: % efficacy (5-HT2B), relative efficacy vs maximal effect of serotonin alone (100%)
T3 construct: expressed in transfected cells; host or cells: CHO-FlpIn
T3 sequence (P41595 whole entry): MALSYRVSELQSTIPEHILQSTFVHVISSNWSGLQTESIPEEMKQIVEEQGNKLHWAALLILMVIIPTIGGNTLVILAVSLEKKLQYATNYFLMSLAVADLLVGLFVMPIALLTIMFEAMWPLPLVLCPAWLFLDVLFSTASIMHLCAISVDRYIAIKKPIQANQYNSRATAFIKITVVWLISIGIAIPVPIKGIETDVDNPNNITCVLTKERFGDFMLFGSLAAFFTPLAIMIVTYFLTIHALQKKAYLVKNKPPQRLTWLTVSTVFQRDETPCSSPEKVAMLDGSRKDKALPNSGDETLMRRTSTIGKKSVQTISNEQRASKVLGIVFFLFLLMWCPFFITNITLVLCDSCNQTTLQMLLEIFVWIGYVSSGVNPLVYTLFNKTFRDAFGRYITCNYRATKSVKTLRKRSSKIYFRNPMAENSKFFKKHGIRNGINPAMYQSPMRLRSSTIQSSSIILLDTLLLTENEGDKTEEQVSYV
Experimental: 3. Human 5-HT2B Functional Assay
Cells were seeded into sterile black 384-well plates with clear bottom at 30,000 cells/well in a volume of 25 μl and grown overnight at 37° C., in 5% CO2 in tissue culture medium (“CHO-S-SFM II” by Invitrogen), containing 1% dialysed FCS and 50 μg/ml gentamicin (Invitrogen). On the next morning, medium was replaced by a serum free version of the same tissue culture medium for a further incubation for 4 hours at 37° C. and in 5% CO2. Cells were then loaded with a fluorescent calcium-sensitive dye in the presence of 0.07% probenecid for an hour at 37° C., according to the manufacturer's protocol (Ca5-Assay Kit, Molecular Devices), followed by an additional 60 min incubation at room temperature. Serial compound dilutions (final concentrations of 10^−10 to 10^−5M, prepared in HBSS+50 mM HEPES) were first added to the cells alone (“first addition” to assess agonism on the 5-HT2B receptor), then after 8 min, serotonin was added to the same wells at a final concentration of 10^−8 M (“second addition” to see potential antagonistic effect) and the maximal calcium response was determined using a FLIPR® Tetra instrument (Molecular Devices) in each of the two steps. The relative efficacy of the compounds was calculated as a percentage of the maximal effect induced by serotonin alone (defined as 100%). To determine EC50/IC50 values, concentration-response curves were fitted using a four-parameter logistic equation (IDBS Biobook™). Kb values were calculated from IC50 values, according to Cheng & Prusoff.

| SMILES | EC50 (human 5-HT2A receptor) [µM] | EC50 (5-HT2C receptor) [nM] | Emax (5-HT2C receptor) [%] | EC50 (human 5-HT2B receptor) [µM] | other results |
| --- | --- | --- | --- | --- | --- |
| CC1CNCc2cccc3c2N1CCC3C(F)(F)F (single isomer, unassigned) [Isomer 4.A, 4-methyl-8-(trifluoromethyl)-2,3,4,6,7,8-hexahydro-1H-[1,4]diazepino[6,7,1-ij]quinoline] | > 10 | < 20 | 101 | > 10 | – |
| CC1CNCc2cccc3c2N1CCC3C(F)(F)F (single isomer, unassigned) [Isomer 4.B, 4-methyl-8-(trifluoromethyl)-2,3,4,6,7,8-hexahydro-1H-[1,4]diazepino[6,7,1-ij]quinoline] | – | 20 to 200 | – | > 10 | EC50 (human 5-HT2A receptor; listed as 4.B): > 10 µM; % efficacy (5-HT2C) (5-HT2C receptor; listed as 4.B): 87% |
| CC1CNCc2cccc3c2N1CCC3C(F)(F)F (single isomer, unassigned) [Isomer 4.C, 4-methyl-8-(trifluoromethyl)-2,3,4,6,7,8-hexahydro-1H-[1,4]diazepino[6,7,1-ij]quinoline] | 0.02 to 0.2 | < 20 | – | 0.02 to 0.2 | Emax (human 5-HT2A receptor): 24%; Selectivity (based on agonism) EC50 5-HT2A/EC50 5-HT2C (human 5-HT2A receptor): 2; % efficacy (5-HT2C) (5-HT2C receptor; listed as 4.C): 101%; Selectivity (based on agonism) EC50 5-HT2B/EC50 5-HT2C (human 5-HT2B receptor; listed as 4.C): 12; Emax (human 5-HT2B receptor): 44% |
| CC1CNCc2cccc3c2N1CCC3C(F)(F)F (single isomer, unassigned) [Isomer 4.D, 4-methyl-8-(trifluoromethyl)-2,3,4,6,7,8-hexahydro-1H-[1,4]diazepino[6,7,1-ij]quinoline] | – | 200 to 1000 | – | 0.2 to 1 | EC50 (human 5-HT2A receptor; listed as 4.D): > 10 µM; % efficacy (5-HT2C) (5-HT2C receptor; listed as 4.D): 86%; Selectivity (based on agonism) EC50 5-HT2B/EC50 5-HT2C (human 5-HT2B receptor; listed as 4.D): 2; % efficacy (5-HT2B) (human 5-HT2B receptor; relative efficacy vs maximal effect of serotonin alone (100%)): 30% |
| CC1CNCc2cccc3c2N1CCC3C(F)F (single isomer, unassigned) [Isomer 5.A, 8-(difluoromethyl)-4-methyl-2,3,4,6,7,8-hexahydro-1H-[1,4]diazepino[6,7,1-ij]quinoline] | < 0.02 | < 20 | – | 0.2 to 1 | Emax (human 5-HT2A receptor): 21%; Selectivity (based on agonism) EC50 5-HT2A/EC50 5-HT2C (human 5-HT2A receptor): 0.5; % efficacy (5-HT2C) (5-HT2C receptor; listed as 5.A): 109%; Selectivity (based on agonism) EC50 5-HT2B/EC50 5-HT2C (human 5-HT2B receptor): 20; Emax (human 5-HT2B receptor): 36% |
| CC1CNCc2cccc3c2N1CCC3C(F)F (single isomer, unassigned) [Isomer 5.B, 8-(difluoromethyl)-4-methyl-2,3,4,6,7,8-hexahydro-1H-[1,4]diazepino[6,7,1-ij]quinoline] | > 10 | 20 to 200 | – | > 10 | % efficacy (5-HT2C) (5-HT2C receptor; listed as 5.B): 110% |
| CC1CNCc2cccc3c2N1CCC3C(F)F (single isomer, unassigned) [Isomer 5.C, 8-(difluoromethyl)-4-methyl-2,3,4,6,7,8-hexahydro-1H-[1,4]diazepino[6,7,1-ij]quinoline] | – | 200 to 1000 | – | > 10 | EC50 (human 5-HT2A receptor; listed as 5.C): > 10 µM; % efficacy (5-HT2C) (5-HT2C receptor; listed as 5.C): 89% |
| CC1CNCc2cccc3c2N1CCC3C(F)F (single isomer, unassigned) [Isomer 5.D, 8-(difluoromethyl)-4-methyl-2,3,4,6,7,8-hexahydro-1H-[1,4]diazepino[6,7,1-ij]quinoline] | – | 200 to 1000 | – | > 10 | EC50 (human 5-HT2A receptor; listed as 5.D): > 10 µM; % efficacy (5-HT2C) (5-HT2C receptor; listed as 5.D): 84% |
| CC1CNCc2cccc3c2N1CCC3C(F)(F)F (centres unmarked) [Example 4, 4-Methyl-8-(trifluoromethyl)-2,3,4,6,7,8-hexahydro-1H-[1,4]diazepino[6,7,1-ij]quinoline] | > 10 | 20 to 200 | 104 | > 10 | – |
| CC1CNCc2cccc3c2N1CCC3C(F)F (centres unmarked) [Example 5, 8-(Difluoromethyl)-4-methyl-2,3,4,6,7,8-hexahydro-1H-[1,4]diazepino[6,7,1-ij]quinoline] | > 10 | 20 to 200 | 95 | > 10 | – |
| CC1CNCc2cccc3c2N1CCC3CF (centres unmarked) [Example 7, 8-(Fluoromethyl)-4-methyl-2,3,4,6,7,8-hexahydro-1H-[1,4]diazepino[6,7,1-ij]quinoline] | > 10 | 20 to 200 | 107 | > 10 | – |
| CCOCC1CCN2c3c(cccc31)CNCC2C (centres unmarked) [Example 8, 8-(Ethoxymethyl)-4-methyl-2,3,4,6,7,8-hexahydro-1H-[1,4]diazepino[6,7,1-ij]quinoline] | > 10 | 200 to 1000 | 93 | > 10 | – |
| COCC1CCN2c3c(cccc31)CNCC2C (centres unmarked) [Example 9, 8-(Methoxymethyl)-4-methyl-2,3,4,6,7,8-hexahydro-1H-[1,4]diazepino[6,7,1-ij]quinoline] | > 10 | 200 to 1000 | 82 | > 10 | – |
